The values that follow come from patent US11166970B2, “Composition for preventing or treating neurological disorder comprising aucubin” (University-Industry Cooperation Group of Kyung Hee …, priority 2017, dated 2021).

Assay [1] has as its system NeuN. The assay is described as follows: Immunoblot analysis: expression of NeuN (mature neuron-specific marker). In kind it is cell-based, rat. As to conditions: relative to β-actin, aucubin 0.01-10 μM vs untreated, FIG. 3A, B. The source says: (§1) In order to culture neurons, cells were obtained from the brain of an E16 rat embryo according to a method known in the art (Lim et al., 2007; Jo et al., 2007). Specifically, hippocampal eminence was isolated from the forebrain of the E16 rat embryo, and cells were mechanically isolated from the thus-obtained hippocampal eminence tissue by using Ca^2+/Mg^2+-free HBSS(Hanks' Balanced Salt Solution, Invitrogen). PAX6-GFP expressing neuronal precursor cells (NPCs) were isolated from the sub ventricular zone of a PAX6-GFP transgenic mouse. […]
(§2) Specifically, cells (30,000 cells/cm^2), which were cultured in a 60 mm petri dish coated with 15 μg/mL of poly-L-ornithine (Sigma-Aldrich, USA) and 1 μg/mL of fibronectin (Sigma-Aldrich, USA), were used. […] The protein quantification was performed using a Bradford protein assay kit (Bio-Rad, Hercules, Calif., USA).
(§3) Subsequently, a mixture of 20 μg of the proteins and a loading buffer (Biosesang Co., Seoul, Korea) was boiled at 100° C. for 10 minutes to denature the proteins. […] Thereafter, signals were detected after culturing the proteins with a secondary antibody.
(§4) In order to verify the effect of aucubin on enhancing the survival rates of GABAergic and glutamatergic neurons, the cells were treated with aucubin, followed by quantifying the expression levels of each cell type marker by an immunoblot method. […]
(In general: A western blot detects proteins with antibodies after separation by electrophoresis.)

Assay [2] deals with GABAergic neurons expressing a GAD65/67 marker. The assay is described as follows: Immunofluorescence staining: survival rate of GABAergic neurons expressing a GAD65/67 marker. The note with it: aucubin 0.01-10 μM vs cells not treated with aucubin; survival rate relative to total number of cells; FIG. 1A. It is filed as cell-based, rat. The source says: (§5) In order to culture neurons, cells were obtained from the brain of an E16 rat embryo according to a method known in the art (Lim et al., 2007; Jo et al., 2007). Specifically, hippocampal eminence was isolated from the forebrain of the E16 rat embryo, and cells were mechanically isolated from the thus-obtained hippocampal eminence tissue by using Ca^2+/Mg^2+-free HBSS(Hanks' Balanced Salt Solution, Invitrogen). PAX6-GFP expressing neuronal precursor cells (NPCs) were isolated from the sub ventricular zone of a PAX6-GFP transgenic mouse.
(§6) The culture of cells was supplemented with 10 ng/mL or 20 ng/mL of bFGF (basic fibroblast growth factor, Invitrogen), and culturing was performed for 3 days in a serum-free N2 medium. After the confluency of cells reaches 70% to 80% by culturing for 3 to 4 days, the cells were subjected to passaging, and then divided and seeded according to an experimental use. Subsequently, the cells were cultured for 7 days in a N2 medium where FGF is removed, allowing neurons to be sufficiently differentiated. The cells were treated with aucubin (Sigma) at varying concentrations (0 μM, 0.01 μM, 0.1 μM, 1 μM, or 10 μM) in a bFGF-free N2 medium. […]
(§7) Thereafter, the number of the stained cells was counted and the survival rates thereof were shown in a graph. […]

Assay [3] concerns cells synthesizing GABA among the cells expressing Pax6-GFP. Briefly: Immunofluorescence staining: ratio of cells synthesizing GABA among cells expressing Pax6-GFP. It is filed as cell-based. As to conditions: Pax6-GFP transgenic mouse neuronal precursor cells; aucubin 0.01-10 μM vs untreated; FIG. 4C.
Description: as §5, §6
(§8) For GFP-fluorescence staining, an anti-GFP (rabbit anti-GFP antibody, 1:500, Merck, Germany) primary antibody was used. […]

Assay [4] has as its system glutamatergic neurons expressing a vGluT1 marker. The assay is described as follows: Immunofluorescence staining: survival rate of glutamatergic neurons expressing a vGluT1 marker. It is filed as cell-based, rat. The note with it: aucubin 0.01-10 μM vs cells not treated with aucubin; increase remarkably lower than for GABAergic neurons; FIG. 1B.
Description: as §5, §6, §7

Assay [5] concerns GAD65/67. The assay is described as follows: Immunoblot analysis: expression of GAD65/67 (GABAergic neuron-specific marker). As to conditions: relative to β-actin, aucubin 0.01-10 μM vs untreated, FIG. 3A, C. In kind it is cell-based, rat.
Description: as §1, §2, §3, §4

The test system of assay [6] is cholinergic neurons expressing a ChAT-GFP marker. The assay is described as follows: Immunofluorescence staining: survival rate of cholinergic neurons expressing a ChAT-GFP marker. It is filed as cell-based. As to conditions: ChAT-GFP transgenic mouse cells; aucubin 0.01-10 μM vs untreated; relative to total DAPI-stained cells; FIG. 2b. As to the method:
as §6, §8
(§9) Thereafter, the number of the stained cells was counted, and compared with the number of the cells expressing a GABAergic neuron-specific marker (GAD65/67), and the survival rates thereof were shown in a graph.
(§10) Specifically, the cells cultured by the method according to Experimental Example 1 were treated with aucubin at varying concentrations of 0 μM, 0.01 μM, 0.1 μM, 1 μM, and 10 μM, respectively. The number of GABAergic neurons expressing a GAD65/67 marker and the number of cholinergic neuron expressing a ChAT-GFP marker were shown in graphs as survival rates relative to the total number of cells which were fluorescence stained with DAPI.

Assay [7] relates to neuronal precursor cells expressing Pax6-GFP. The assay is described as follows: Immunofluorescence staining: number of neuronal precursor cells expressing Pax6-GFP. In kind it is cell-based. As to conditions: Pax6-GFP transgenic mouse neuronal precursor cells; aucubin 0.01-10 μM vs untreated; FIG. 4A, B.
Description: as §5, §6, §8

In assay [8] the test system is GABAergic neurons expressing a GAD65/67 marker. Briefly: Immunofluorescence staining: survival rate of GABAergic neurons in ChAT-GFP transgenic mouse culture. It is filed as cell-based. As to conditions: ChAT-GFP transgenic mouse cells; aucubin 0.01-10 μM vs untreated; relative to total DAPI-stained cells; FIG. 2b. As to the method: as §6, §8, §9, §10
The subject of assay [9] is vGluT1. Briefly: Immunoblot analysis: expression of vGluT1 (glutamatergic neuron-specific marker). In kind it is cell-based, rat. The note with it: relative to β-actin, aucubin 0.01-10 μM vs untreated, remarkably lower than GAD65/67, FIG. 3A, D.
Description: as §1, §2, §3, §4

As for `OCC1=C[C@@H](O)[C@@H]2C=CO[C@@H](O[C@@H]3O[C@H](CO)[C@@H](O)[C@H](O)[C@H]3O)[C@H]12` [aucubin], the “expression of NeuN (mature neuron-specific marker)” value in [1] was “remarkably increased”. Besides, in assay [2], the “increase in survival rate of GABAergic neurons expressing a GAD67/65 marker” value is reported as “up to 2 fold”. Further, the “increase in ratio of cells synthesizing GABA among the cells expressing Pax6-GFP” value in [3] is on record as no less than 1.5 fold. In assay [4], the “survival rate of excitatory neurons expressing vGluT1” value is given as “significantly increased”. Moreover, the “increase in expression of GAD65/67 (GABAergic neuron-specific marker)” value in assay [5] is listed as “up to 5 fold”. Besides, the “survival rate of cholinergic cells expressing a ChAT-GFP marker” value in [6] is given as “the increase rate thereof was not significant”. Further, the “increase in number of cells which express Pax6-GFP” value in assay [7] was “about 2 fold”. In addition, in [8], the “increase in survival rate of GABAergic neurons expressing a GAD65/67 marker” value was roughly 2 fold. For the same compound, the “expression of vGluT1 (glutamatergic neuron-specific marker)” value in [9] is “significantly increased”.
